Tests used:
[1] = system: P. aeruginosa 44; test: MIC against the primary screening panel (broth microdilution); assay type: cell-based; parameters: key: A: a MIC value measurement that is the same as that observed for polymyxin B; a MIC value measured that is lower than the comparable value observed for polymxin B; a MIC value measured that is higher than the comparable value observed for polymyxin B; settings: class relative to polymyxin B
Protocol: (§1) Antibacterial potency can be assessed by broth microdilution according to CLSI guidelines, plates can be incubated at 37° C., and aeration (rotation at 200 rpm) can be employed. In some assays, surfactant (Survanta, Abbott Laboratories) can be added to give a final concentration of 1, 10 and 40% in caMHB. Native polymyxin A, polymyxin B and the comparator compound of Formula II (polymyxin B decapeptide with an o-chlorophenyl urea tail) were included for comparison.

[2] = system: P. aeruginosa 44; test: Neutropenic mouse lung infection model; assay type: in vivo
Protocol: Compound of Formula (Ia) was tested in a murine thigh model. For the thigh model, female CD-1 mice were rendered neutropenic by IP injection on days −4 and −1 with 150 and 100 mg/kg cyclophosphamide, respectively. On day 0 mice were infected with 1×10^7 colony-forming units (cfu) of A. baumannii 1570 in one thigh muscle, and then administered compound SC in a dose ranging from 2 to 12 mg/kg at 1 and 6 hours post-infection.
The mouse lung model was run in the same manner as the thigh infection model, except that mice were infected IN with 1×10^7 cfu of P. aeruginosa 44 on day 0. Doses administered in the lung study ranged from 8 to 20 mg/kg. The ED−3log10 was based on cfu determination from the lung tissue 24 hours post-infection.

[3] = system: P. aeruginosa #44; test: MICs for P. aeruginosa #44 in the presence of surfactant; assay type: cell-based; parameters: key: A: a MIC value measurement that is the same as that observed for polymyxin B; a MIC value measured that is lower than the comparable value observed for polymxin B; a MIC value measured that is higher than the comparable value observed for polymyxin B; settings: class relative to polymyxin B
Protocol: as §1

SMILES: CC(C)C[C@H]1NC(=O)[C@H](CCN)NC(=O)[C@@H](NC(=O)[C@@H](CCN)NC(=O)[C@@H](NC(=O)[C@H](CCN)NC(=O)[C@H]2C[C@@H]2c2ccccc2)C(C)O)CCNC(=O)[C@H](C(C)O)NC(=O)[C@H](CCN)NC(=O)[C@H](CCN)NC(=O)[C@H](C(C)O)NC1=O (single isomer, unassigned) [Compound 5]
- MIC P. aeruginosa 44 [1]: C
- Lungs cleared within one log10 of limit of detection ([2]; mouse lung model, 8 through 20 mg/kg dose levels): Lungs cleared within one log10 of limit of detection
- ED−3log10 ([2]; neutropenic mouse lung, P. aeruginosa 44, SC, BID×1d, cfu 24 hours post-infection, experiment with Formula (Ia)): 6.35 mg/kg
- MIC P. aeruginosa #44, 0% surfactant ([3]; 0% surfactant): C
- MIC P. aeruginosa #44, 10% surfactant ([3]; 10% surfactant (Survanta) in caMHB): B
- MIC P. aeruginosa #44, 40% surfactant ([3]; 40% surfactant (Survanta) in caMHB): B

— US8415307B1, “Antibiotic compositions for the treatment of gram negative infections” (priority 2010, dated 2013)
